Usually EC50 stands for the concentration that produces a half-maximal response. Usually AUC(0-inf) stands for total exposure, with the tail of the curve extrapolated. A lower AUC(0-inf) goes with low exposure. Usually AUC(0-t) stands for the area under the concentration-time curve up to a stated or last time point. By Cmax is commonly meant the peak of the concentration-time curve. A word on the Tmax: it is the time at which the peak concentration occurs. For orientation: half-life means the time in which the quantity being followed falls by half. A higher half-life goes with slow decline.

These results are taken from patent EP4755885A1 (Shanghai Hansoh Biomedical Co., Ltd., priority 2023, dated 2025).

Series [1] addresses T1, human GLP-1 receptor (Homo sapiens, UniProt P43220).
T1 construct: expressed in transfected cells
Briefly: cAMP production in cell line stably transformed with human GLP1 receptor, 2 h co-incubation (HTRF). In kind it is cell-based. To be noted: CHO-K1/GLP-1R/CRE-luc cells, stimulation for 2 h, read-out: EC50. On the procedure:
(§1) The purpose of this assay example is to test the ability of the compound to activate the human GLP-1 receptor on cell surface. The EC50 for stimulated cAMP production after activation characterizes the ability of the compound to activate the human GLP-1 receptor.
In this experiment, the compound and cells were co-incubated for 2 h.
(§2) Frozen cell line CHO-K1/GLP-1R/CRE-luc stably transformed with human GLP1 receptor was removed from a liquid nitrogen tank, and was placed in a 37°C water bath for rapid thawing. The cells were resuspended in DMEM/F12 medium, and after centrifugation, were washed once. The cells were resuspended in an experimental buffer, i.e., DMEM/F12 medium containing 0.1% casein. After centrifugation, cell density was adjusted using the experimental buffer. The cells were plated onto a 384-well plate at a density of 1500 cells/5 µL/well. Then, each well was added with 2.5 µL of IBMX working solution prepared with the buffer, the final concentration of IBMX being 0.5 mM, and 2.5 µL of a serially diluted compound sample (starting from […], 3-fold dilution, 12 concentrations). The plate was centrifuged at 1000 rpm for 1 min, and was stood for incubation at 37°C for 2 h. Determination was performed using the Cisbio cAMP - Gs Dynamic kit. cAMP-d2 and anti-cAMP-Eu3+-Cryptate were diluted 18-fold and 20-fold respectively with cAMP Lysis & Detection Buffer, and were respectively mixed homogeneously. Each well was added with 5 µL of diluted cAMP-d2 solution, and the plate was centrifuged at 1000 rpm for 1 min, and shaken for 30 seconds for homogeneous mixing. Then, each well was added with 5 µL of diluted anti-cAMP-Eu3+-Cryptate solution, and the plate was centrifuged at 1000 rpm for 1 min and was incubated in the dark at room temperature for 1 h. HTRF signals were read using the Biotek Synergy H1 microplate reader, the excitation wavelength being 320 nm and the emission wavelengths being 620 nm and 665 nm.
(§3) The signal-to-signal ratio was calculated (665 nm/620 nm * 10,000). Nonlinear fitting between the signal-to-signal ratio and the sample concentration was performed in GraphPad Prism 10 using a four-parameter equation to obtain the EC50 value.
(Cyclic AMP is a second messenger, typically raised through Gs and lowered through Gi signalling.)

Series [2] concerns the target T1, human GLP-1 receptor. The series can be described thus: cAMP production in cell line stably transformed with human GLP1 receptor, 30 min co-incubation (HTRF). In kind it is cell-based. The settings on record: CHO-K1/GLP-1R/CRE-luc cells, stimulation for 0.5 h, read-out: EC50. The method, then:
as §1
In this experiment, the compound and cells were co-incubated for 30 min.
as §2, with “for 0.5” for “for 2”
as §3

Series [3] in a line: Pharmacokinetic evaluation in mice, oral administration. In kind it is in vivo, Balb/c mice. To be noted: p.o. 5 mg/kg, plasma; for AUC(0-inf) / AUC(0-t) / Cmax / Tmax / MRT inf: mouse, in vivo, po; for MRT inf: read-out: MRT 0-∞. The method, then:
Balb/c mice were used as test animals to study the pharmacokinetic behavior of the compound of the present invention in mice (plasma) at a dose of 5 mg/kg administered orally and 1 mg/kg administered intravenously.
Balb/c mice, 3 per group, male.
(§4) Preparation of drug for oral administration: 10%PEG400/10%PG/80% glycine buffer (100 mM glycine, 64 Mm NaOH, […]) buffer.
10 ml of PEG400, 10 ml of PG, and 80 ml of (100 mM glycine, 64 Mm NaOH, pH = 9) were measured into a 100 ml volumetric flask, vortexed, mixed homogeneously, and sonicated to obtain a clear solution.
Single PK: An example compound was weighed into a 4 mL glass bottle. The solution was added, and sonication was performed for 10 min to obtain a colorless clear solution having a concentration of 0.5 mg/mL.
The solution was added, and sonication was performed for 10 min to obtain a colorless clear solution having a concentration of 0.5 mg/mL.
Three Balb/c mice, male, respectively administered p.o. after fasting overnight, at a dose of 5 mg/kg and in an administration volume of 10 mL/kg.
The blood samples were placed in EDTA-K2 anticoagulant tubes and centrifuged at 6000 rpm at 4°C for 6 min to separate plasma, which was stored at -80°C. The mice were fed 4 h after administration.
(§5) • 1) 40 µL of a plasma sample was added with 160 µL of acetonitrile for precipitation, and after mixing, the mixture was centrifuged at 3500 × g for 5 to 20 min. • 2) The supernatant solution after treatment was taken for LC/MS/MS analysis of the concentration of the test compound. The LC/MS/MS analysis instrument was AB Sciex API 4000 Qtrap.
• Liquid phase condition: Shimadzu LC-20AD pump • Chromatographic column: Agilent ZORBAX XDB-C18 (50×2.1 mm, 3.5 µm) Mobile phase: Solution A was 0.1% formic acid aqueous solution, and Solution B was acetonitrile • Flow rate: 0.4 mL/min • Elution time: 0-4.0 min, the eluent was as follows:
Main pharmacokinetic parameters were calculated using WinNonlin 6.1.

A short description of series [4]: Pharmacokinetic evaluation in beagles, oral administration. The class given is in vivo. To be noted: dog, po, p.o. 2 mg/kg, plasma. The method, then: Beagles were used as test animals to study the pharmacokinetic behavior of the compound of the present invention, administered orally at a dose of 2 mg/kg, in beagles (plasma).
Beagles, 3 per group, male.
as §4
Single PK: The compound of the present invention was weighed into a 100 mL glass bottle, and the solution was added. The pH was first adjusted with 1 M NaOH until the compound dissolves to obtain a clear solution, and then the pH was readjusted to pH 9.0-9.5 with 1 M HCl. Sonication was performed for 10 min to obtain a colorless clear solution having a concentration of 0.4 mg/mL.
Three beagles, male, respectively administered p.o. after fasting overnight, at a dose of 2 mg/kg and in an administration volume of 5 mL/kg.
Blood collection: 0.3 mL of blood was collected from the forelimb vein of the beagles before administration and at 0.25, 0.5, 1, 2, 4, 6, 8, and 24 h after administration. The blood samples were placed in EDTA-K2 anticoagulant tubes and centrifuged at 6000 rpm at 4°C for 6 min to separate plasma, which was stored at -80°C. The beagles were fed 4 h after administration.
as §5
• Liquid phase condition: Shimadzu LC-20AD pump • Chromatographic column: Agilent ZORBAX XDB-C18 (50×2.1 mm, 3.5 µm) Mobile phase: Solution A was 0.1% formic acid aqueous solution, and Solution B was acetonitrile • Flow rate: 0.4 mL/min • Elution time: 0-4.0 min, the eluent was as follows: […]

The mark [5] stands for this setting: not marked single PK (cassette PK).

T1 sequence (P43220 24-463): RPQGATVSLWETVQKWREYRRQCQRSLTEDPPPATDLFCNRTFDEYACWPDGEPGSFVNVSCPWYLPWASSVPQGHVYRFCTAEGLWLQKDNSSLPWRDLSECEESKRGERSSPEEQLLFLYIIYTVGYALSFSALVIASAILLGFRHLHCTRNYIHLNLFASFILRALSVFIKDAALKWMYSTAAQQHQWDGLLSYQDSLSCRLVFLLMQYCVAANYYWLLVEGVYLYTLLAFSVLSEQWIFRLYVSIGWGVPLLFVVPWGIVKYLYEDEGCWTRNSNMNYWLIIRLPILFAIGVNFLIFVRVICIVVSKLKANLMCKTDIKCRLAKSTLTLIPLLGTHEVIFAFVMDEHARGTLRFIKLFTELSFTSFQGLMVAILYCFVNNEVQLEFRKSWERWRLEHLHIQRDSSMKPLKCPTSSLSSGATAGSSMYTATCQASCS

`[2H]C([2H])([2H])N1C(=O)C2(CC2)c2cc(-n3ccn(-c4c5c(nn4-c4cc(C)c(C#N)c(C)c4)CCN(C(=O)c4cc6cc([C@H]7CCOC(C)(C)C7)ccc6n4[C@@]4(c6noc(=O)[nH]6)C[C@@H]4C)[C@H]5C)c3=O)ccc21` [Example 162]: the EC50 on human GLP-1 receptor [1] came to 0.1 nM; at human GLP-1 receptor [2] it was 0.25 nM.

In the case of `Cc1cc(-n2nc3c(c2-n2ccn(-c4ccc5c(c4)CCc4nnc(C)n4-5)c2=O)[C@H](C)N(C(=O)c2cc4cc([C@H]5CCOC(C)(C)C5)ccc4n2[C@@]2(c4noc(=O)[nH]4)C[C@@H]2C)CC3)cc(C)c1F` [Example 8], the EC50 at human GLP-1 receptor [2] is 0.51 nM.

Turning to `[2H]C([2H])([2H])n1nc2c3c(c(-n4ccn(-c5c6c(nn5-c5cc(C)c(F)c(C)c5)CCN(C(=O)c5cc7cc([C@H]8CCOC(C)(C)C8)ccc7n5[C@@]5(c7noc(=O)[nH]7)C[C@@H]5C#C)[C@H]6C)c4=O)ccc31)OCCC2` [Example 287, 3-((1S,2R)-1-(5-((S)-2,2-dimethyltetrahydro-2H-pyran-4-yl)-2-((S)-2-(4-fluoro-3,5-dimethylphenyl)-4-methyl-3-(3-(2-(methyl-d3)-2,7,8,9-tetrahydrooxaheptano[4,3,2-cd]indazol-5-yl)-2-carbonyl-2,3-dihydro-1H-imidazol-1-yl)-4,5,6,7-tetrahydro-2H-pyrazolo[4,3-c]pyridine-5-carbonyl)-1H-indol-1-yl)-2-ethynylcyclopropyl)-1,2,4-oxadiazol-5(4H)-one], in series [3] (single PK), the AUC(0-inf) stood at 28000 ng·h/mL, the AUC(0-t) amounted to 27900 ng·h/mL, the Cmax stood at 5320 ng/mL and the Tmax is 1 h. Also, in series [3] (single PK), the MRT inf was 4.2 h and the tl/2 worked out at 3.0 h. Moreover, the EC50 at human GLP-1 receptor [2] was 0.9 nM. In series [4], this compound showed an AUC(0-inf) of 17200 ng·h/mL, an AUC(0-t) at 24 h of 17000 ng·h/mL and a half-life of 3.7 h. In series [4] (read-out: Cmax), the Cmax worked out at 1880 ng/mL. In series [4] (read-out: MRT 0-∞), the MRT inf came to 6.1 h. Also, the Tmax in series [4] (read-out: tmax) came out at 2.3 h.

In the case of `Cc1cc(-n2nc3c(c2-n2ccn(-c4ccc(N=S(C)(C)=O)cc4F)c2=O)[C@H](C)N(C(=O)c2cc4cc([C@H]5CCOC(C)(C)C5)ccc4n2[C@@]2(c4noc(=O)[nH]4)C[C@@H]2C)CC3)cc(C)c1F` [Example 1], the EC50 at human GLP-1 receptor [2] is 0.37 nM.

In the case of `Cc1cc(-n2nc3c(c2-n2ccn(-c4ccc5c(c4F)C4(CC4)C(=O)N5C)c2=O)[C@H](C)N(C(=O)c2cc4cc([C@H]5CCOC(C)(C)C5)ccc4n2[C@@]2(c4noc(=O)[nH]4)C[C@@H]2C)CC3)cc(C)c1F` [Example 15], the EC50 on human GLP-1 receptor [2] turned out to be 0.32 nM.

On to `Cc1cc(-n2nc3c(c2-n2ccn(-c4ccc5c(c4F)CCc4nnc(C)n4-5)c2=O)[C@H](C)N(C(=O)c2cc4cc([C@H]5CCOC(C)(C)C5)ccc4n2[C@@]2(c4noc(=O)[nH]4)C[C@@H]2C)CC3)cc(C)c1F` [Example 339], for which, at human GLP-1 receptor [2], the EC50 came out at 0.51 nM.

For `Cc1cc(-n2nc3c(c2-n2ccn(-c4ccc(CC(=O)N(C)C)cc4F)c2=O)[C@H](C)N(C(=O)c2cc4cc([C@H]5CCOC(C)(C)C5)ccc4n2[C@@]2(c4noc(=O)[nH]4)C[C@@H]2C)CC3)cc(C)c1F` [Example 7], in series [3] (setting [5]), the AUC(0-inf) is 10800 ng·h/mL, the AUC(0-t) was found to be 10300 ng·h/mL, the concentration peaked (Cmax) at 2970 ng/mL and the Tmax came out at 0.5 h. In addition, in series [3] (setting [5]), the MRT inf turned out to be 2.8 h and the tl/2 came out at 1.6 h. Further, the EC50 on human GLP-1 receptor [2] was determined as 0.3 nM.

`Cc1cc(-n2nc3c(c2-n2ccn(-c4ccc5c(c4)CCc4nnnn4-5)c2=O)[C@H](C)N(C(=O)c2cc4cc([C@H]5CCOC(C)(C)C5)ccc4n2[C@@]2(c4noc(=O)[nH]4)C[C@@H]2C)CC3)cc(C)c1F` [Example 342]: on human GLP-1 receptor [2], the EC50 turned out to be 1.5 nM.

Turning to `Cc1cc(-n2nc3c(c2-n2ccn(-c4cc5c6c(c4)OCC(=O)N6CCC5)c2=O)[C@H](C)N(C(=O)c2cc4cc([C@H]5CCOC(C)(C)C5)ccc4n2[C@@]2(c4noc(=O)[nH]4)C[C@@H]2C)CC3)cc(C)c1F` [Example 41], on human GLP-1 receptor [2], the EC50 is 0.9 nM.

Take `[2H]C([2H])([2H])N1C(=O)C2CC2c2cc(-n3ccn(-c4c5c(nn4-c4cc(C)c(F)c(C)c4)CCN(C(=O)c4cc6cc([C@H]7CCOC(C)(C)C7)ccc6n4[C@@]4(c6noc(=O)[nH]6)C[C@@H]4C)[C@H]5C)c3=O)ccc21` (some centres unmarked) [Example 61]: the EC50 on human GLP-1 receptor [2] is 1.39 nM.
